± gives the expanded uncertainty stated by the source.
Key:
[1] = 100 kPa, Liquid; for speed of sound: Frequency=2 MHz, Linear variable-path acoustic interferometer; for mass density: Vibrating tube method
[2] = xn = mol fraction of the nth substance listed; settings: 100 kPa, Liquid; for speed of sound: Frequency=2 MHz, Linear variable-path acoustic interferometer; for mass density: Vibrating tube method

SMILES | speed of sound ([1]; 303.15 K) | mass density ([1]; 303.15 K) | speed of sound ([1]; 308.15 K) | mass density ([1]; 308.15 K) | speed of sound ([1]; 313.15 K) | mass density ([1]; 313.15 K) | speed of sound ([1]; 318.15 K) | mass density ([1]; 318.15 K) | speed of sound ([2]; 303.15 K, x1 = 1) | mass density ([2]; 303.15 K, x1 = 1) | speed of sound ([2]; 308.15 K, x1 = 1) | mass density ([2]; 308.15 K, x1 = 1) | speed of sound ([2]; 313.15 K, x1 = 1) | mass density ([2]; 313.15 K, x1 = 1) | speed of sound ([2]; 318.15 K, x1 = 1) | mass density ([2]; 318.15 K, x1 = 1) | also measured
CCNc1ccccc1 [N-ethylaminobenzene] | 1497 ± 1.7 m/s | 952.41 ± 2 kg/m3 | 1481 ± 1.7 m/s | 947.69 ± 2 kg/m3 | 1464 ± 1.7 m/s | 942.95 ± 2 kg/m3 | 1448 ± 1.6 m/s | 938.23 ± 2 kg/m3 |  |  |  |  |  |  |  |  | 
CCOC(=O)C(C)O (stereo not drawn) [DL-ethyl lactate] + CCNc1ccccc1 |  |  |  |  |  |  |  |  | 1261.1 ± 2.5 m/s | 1022.88 ± 2.2 kg/m3 | 1243.8 ± 2.5 m/s | 1017.39 ± 2.1 kg/m3 | 1224.8 ± 2.5 m/s | 1011.83 ± 2.1 kg/m3 | 1206.9 ± 2.5 m/s | 1006.31 ± 2.1 kg/m3 | 
CCOC(=O)C(C)O (stereo not drawn) [DL-ethyl lactate] + CNc1ccccc1 |  |  |  |  |  |  |  |  | 1261.1 ± 2.5 m/s | 1022.88 ± 2.2 kg/m3 | 1243.8 ± 2.5 m/s | 1017.39 ± 2.1 kg/m3 | 1224.8 ± 2.5 m/s | 1011.83 ± 2.1 kg/m3 | 1206.9 ± 2.5 m/s | 1006.31 ± 2.1 kg/m3 | 
Nc1ccccc1 [aniline] + CCOC(=O)C(C)O |  |  |  |  |  |  |  |  |  |  |  |  |  |  |  |  | speed of sound ([2]; 303.15 K, x2 = 0): 1614 ± 1.7 m/s; mass density ([2]; 303.15 K, x2 = 0): 1012.81 ± 2 kg/m3; speed of sound ([2]; 308.15 K, x2 = 0): 1595 ± 1.7 m/s; mass density ([2]; 308.15 K, x2 = 0): 1008.91 ± 2 kg/m3; speed of sound ([2]; 313.15 K, x2 = 0): 1574.4 ± 1.7 m/s; mass density ([2]; 313.15 K, x2 = 0): 1004.59 ± 2 kg/m3; speed of sound ([2]; 318.15 K, x2 = 0): 1554.9 ± 1.7 m/s; mass density ([2]; 318.15 K, x2 = 0): 1000.21 ± 2 kg/m3
Nc1ccccc1 [aniline] | 1614 ± 1.7 m/s | 1012.81 ± 2 kg/m3 | 1595 ± 1.7 m/s | 1008.91 ± 2 kg/m3 | 1574.4 ± 1.7 m/s | 1004.59 ± 2 kg/m3 | 1554.9 ± 1.7 m/s | 1000.21 ± 2 kg/m3 |  |  |  |  |  |  |  |  | 
CNc1ccccc1 [N-methylaniline] | 1547 ± 1.7 m/s | 978.2 ± 2 kg/m3 | 1526.9 ± 1.7 m/s | 973.53 ± 2 kg/m3 | 1511 ± 1.7 m/s | 969.92 ± 2 kg/m3 | 1491.4 ± 1.7 m/s | 964.9 ± 2 kg/m3 |  |  |  |  |  |  |  |  | 

Source: the NIST ThermoML archive (doi:10.1016/j.jct.2016.09.010)
